biological target: PIK3CG (human) (UniProt P48736); assay: Assessment of PIK3CG Kinase Activity
Sequence (P48736 whole entry, looked up): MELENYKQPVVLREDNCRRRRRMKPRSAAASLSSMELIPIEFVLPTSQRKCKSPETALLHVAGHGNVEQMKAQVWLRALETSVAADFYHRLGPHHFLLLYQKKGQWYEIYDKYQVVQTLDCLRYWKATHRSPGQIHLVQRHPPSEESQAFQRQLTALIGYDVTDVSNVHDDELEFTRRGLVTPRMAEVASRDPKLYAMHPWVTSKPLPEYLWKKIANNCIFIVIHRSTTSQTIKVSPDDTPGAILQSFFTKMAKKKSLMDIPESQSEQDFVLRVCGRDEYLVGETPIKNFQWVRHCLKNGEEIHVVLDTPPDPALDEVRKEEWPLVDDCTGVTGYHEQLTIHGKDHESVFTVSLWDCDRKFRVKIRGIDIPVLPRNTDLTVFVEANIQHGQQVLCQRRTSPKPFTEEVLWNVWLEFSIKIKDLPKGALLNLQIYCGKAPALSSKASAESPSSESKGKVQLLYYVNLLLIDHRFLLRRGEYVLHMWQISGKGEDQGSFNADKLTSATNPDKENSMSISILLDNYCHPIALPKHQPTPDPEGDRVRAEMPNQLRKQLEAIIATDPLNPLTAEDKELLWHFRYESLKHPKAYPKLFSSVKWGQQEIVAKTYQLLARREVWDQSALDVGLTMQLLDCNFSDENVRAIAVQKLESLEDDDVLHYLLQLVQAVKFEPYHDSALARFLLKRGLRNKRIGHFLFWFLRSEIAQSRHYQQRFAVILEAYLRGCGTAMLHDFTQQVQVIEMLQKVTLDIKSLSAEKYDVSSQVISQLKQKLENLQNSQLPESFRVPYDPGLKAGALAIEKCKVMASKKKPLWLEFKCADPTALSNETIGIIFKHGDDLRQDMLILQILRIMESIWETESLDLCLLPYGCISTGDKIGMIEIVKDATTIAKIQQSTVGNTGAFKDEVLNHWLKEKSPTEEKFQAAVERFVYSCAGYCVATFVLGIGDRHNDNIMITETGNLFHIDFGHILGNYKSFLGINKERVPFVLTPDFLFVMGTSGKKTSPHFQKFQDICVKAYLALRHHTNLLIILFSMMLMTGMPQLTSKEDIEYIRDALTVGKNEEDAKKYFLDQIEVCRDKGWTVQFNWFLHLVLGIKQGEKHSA

IC50, < 800 nM:
CC(C)(C)OC(=O)N[C@H]1CC[C@H](CNC(=O)Nc2nc3c(s2)-c2nc(-c4ccccc4Cl)ncc2CC3)CC1, NC(=O)Nc1nc2c(s1)-c1nc(-c3ccccc3Cl)ncc1CC2, CC(C)(C)OC(=O)NC1CCN(C(=O)Nc2nc3c(s2)-c2nc(-c4ccccc4Cl)ncc2CC3)C1 (stereo not given), CCn1cc(CNC(=O)Nc2nc3c(s2)-c2nc(-c4cccc(F)c4Cl)ncc2CC3)cn1, CS(=O)(=O)N[C@@H]1CCN(C(=O)Nc2nc3c(s2)-c2nc(-c4ccccc4Cl)ncc2CC3)C1, CC(C)CNC(=O)Nc1nc2c(s1)-c1nc(-c3cccc(F)c3Cl)ncc1CC2, CC(C)C(=O)Nc1cccc(CNC(=O)Nc2nc3c(s2)-c2nc(-c4ccccc4Cl)ncc2CC3)c1, O=C(Nc1nc2c(s1)-c1nc(-c3ccccc3Cl)ncc1CC2)N1CC[C@@H](NC(=O)N2CCCC2)C1, CC(C)CN(C)C(=O)c1cccc(CNC(=O)Nc2nc3c(s2)-c2nc(-c4ccccc4Cl)ncc2CC3)c1, COc1ccccc1C1CCN(C(=O)Nc2nc3c(s2)-c2nc(-c4ccccc4Cl)ncc2CC3)C1 (stereo not given), CN1CCN(Cc2ccc(NC(=O)Nc3nc4c(s3)-c3nc(-c5ccccc5Cl)ncc3CC4)cc2)CC1, O=C(CCNC(=O)Nc1nc2c(s1)-c1nc(-c3ccccc3Cl)ncc1CC2)NC1CC1, O=C(NCCN1CCCC1)Nc1nc2c(s1)-c1nc(-c3ccccc3Cl)ncc1CC2, CC(C)c1noc(CCNC(=O)Nc2nc3c(s2)-c2nc(-c4ccccc4Br)ncc2CC3)n1, CC(C)(C)OC(=O)NCc1cccc(CNC(=O)Nc2nc3c(s2)-c2nc(-c4ccccc4Cl)ncc2CC3)c1, O=C1CCC(NC(=O)Nc2nc3c(s2)-c2nc(-c4ccccc4Cl)ncc2CC3)C(c2ccccc2)N1 (stereo not given), CNC(=O)Nc1nc2c(s1)-c1nc(-c3ccccc3Cl)ncc1CC2, CC(C)OC(=O)N[C@@H]1CCN(C(=O)Nc2nc3c(s2)-c2nc(-c4ccccc4Cl)ncc2CC3)C1, CC(C)(C)OC(=O)N1CCC(CNC(=O)Nc2nc3c(s2)-c2nc(-c4ccccc4Cl)ncc2CC3)CC1, O=C(N[C@H]1CCN(C(=O)Nc2nc3c(s2)-c2nc(-c4ccccc4Cl)ncc2CC3)C1)C(F)F, COCCCNC(=O)Nc1nc2c(s1)-c1nc(-c3ccccc3Cl)ncc1CC2, CCc1nnc(CCNC(=O)Nc2nc3c(s2)-c2nc(-c4ccccc4C(F)(F)F)ncc2CC3)o1, CC(C)OC(=O)N[C@H]1CCN(C(=O)Nc2nc3c(s2)-c2nc(-c4ccccc4Cl)ncc2CC3)C1, CC(=O)N[C@@H]1CCN(C(=O)Nc2nc3c(s2)-c2nc(-c4ccccc4Cl)ncc2CC3)C1, O=C(NCCc1cn[nH]c1)Nc1nc2c(s1)-c1nc(-c3ccccc3Cl)ncc1CC2, CCCn1ccc(CNC(=O)Nc2nc3c(s2)-c2nc(-c4ccccc4Cl)ncc2CC3)n1, O=C(Nc1nc2c(s1)-c1nc(-c3ccccc3Cl)ncc1CC2)N1CCC(CN2CCc3ccccc3C2=O)C1 (stereo not given), CC(C)(C)OC(=O)NCc1ccccc1NC(=O)Nc1nc2c(s1)-c1nc(-c3ccccc3Cl)ncc1CC2, O=C(NCCc1cccnc1)Nc1nc2c(s1)-c1nc(-c3ccccc3Cl)ncc1CC2, CN(C)C(=O)Nc1nc2c(s1)-c1nc(-c3ccccc3Br)ncc1CC2, CC(C)c1cccc(CNC(=O)Nc2nc3c(s2)-c2nc(-c4ccccc4Cl)ncc2CC3)c1, COc1ccc(OC)c(CNC(=O)Nc2nc3c(s2)-c2nc(-c4ccccc4Cl)ncc2CC3)c1, CN1CCC(O)C2(CCCN(C(=O)Nc3nc4c(s3)-c3nc(-c5ccccc5Cl)ncc3CC4)C2)C1 (stereo not given), O=C(Nc1nc2c(s1)-c1nc(-c3ccccc3Cl)ncc1CC2)N1CC[C@@H](NC(=O)N2CCOCC2)C1, CC(C)C(=O)N[C@@H]1CCN(C(=O)Nc2nc3c(s2)-c2nc(-c4ccccc4Cl)ncc2CC3)C1, NC(=O)Nc1nc2c(s1)-c1nc(-c3cccc(F)c3Cl)ncc1CC2, O=C(N[C@H]1CCN(C(=O)Nc2nc3c(s2)-c2nc(-c4ccccc4Cl)ncc2CC3)C1)C1CC1, CC(=O)Nc1cccc(CNC(=O)Nc2nc3c(s2)-c2nc(-c4ccccc4Cl)ncc2CC3)c1, CN(C)C(=O)N[C@@H]1CCN(C(=O)Nc2nc3c(s2)-c2nc(-c4ccccc4Cl)ncc2CC3)C1, O=C(NCc1cccc(NC(=O)N2CCCC2)c1)Nc1nc2c(s1)-c1nc(-c3ccccc3Cl)ncc1CC2

Reference: the Kinase Knowledgebase extract (Sharma et al. 2016)
